Measured values: PMC7187413 (Journal of medicinal chemistry, 2020)
“Also recorded” adds a separate entry of the source. Each block holds one compound with its values, some of them ahead of it.

Legend:
[1] = target: MLL-1 in the full WDR5, RBBP5, ASH2L, and DPY30 (WRAD) complex (Homo sapiens, UniProt P61964); experiment: Biochemical histone methyltransferase assay; conditions: Supplemental Table 4
WDR5 = WDR5 (Homo sapiens, UniProt P61964); experiment: Competition fluorescence polarization-based assay
[2] = system: WDR5 binding to chromatin; experiment: ChIP of WDR5 binding to chromatin at MYC target genes in HEK293 cells; assay type: cell-based, human; conditions: cells treated with 12 versus N.C.
MYC bound to chromatin = experiment: ChIP-qPCR of MYC binding to target genes in c-MYC-HA overexpressing HEK293 cells; assay type: cell-based, human; conditions: 20 μM, 10 h
WDR5-MYC complex = WDR5-MYC complex (Homo sapiens, UniProt P61964); experiment: Co-IP target engagement in whole; assay type: cell-based; conditions: transformed HEK293 cells, 5 μM compound, 24 h

Compound: CNC(=O)c1nc(NS(=O)(=O)c2cc(Br)cc(Cl)c2O)cn1C1CCCC1 [Compound 8, 4-((5-Bromo-3-chloro-2-hydroxyphenyl)sulfonamido)-1-cyclopentyl-N-methyl-1H-imidazole-2-carboxamide]
inhibition of histone methyltransferase activity of MLL-1 [1]: inhibited

Compound: 5-Bromo-3-chloro-N-(1-cyclopentyl-2-(4-(pyrrolidin-3-yl)piperidine-1-carbonyl)-1H-imidazol-4-yl)-2-hydroxybenzenesulfonamide [Compound 9]
Kd (WDR5; read-out: FPA Kd, competition with FITC-labeled small molecule, average of at least 3 independent replicates ± standard deviation): 5 ± 1 µM

Compound: CCOC(=O)c1nc(NS(=O)(=O)c2cc(Br)cc(Cl)c2O)cn1C1CCCC1 [Compound 6, Ethyl 4-((5-bromo-3-chloro-2-hydroxyphenyl)sulfonamido)-1-cyclopentyl-1H-imidazole-2-carboxylate]
inhibition of histone methyltransferase activity of MLL-1 [1]: inhibited

Compound: CS(=O)(=O)c1nc(NS(=O)(=O)c2cc(Br)cc(Cl)c2O)cn1C1CCCC1 [Compound 12]
inhibition of histone methyltransferase activity of MLL-1 [1]: inhibited
WDR5 binding to chromatin at MYC target loci [2]: comparable levels
amount of MYC at loci where MYC recruitment is dependent on WDR5 (MYC bound to chromatin; C7orf40, RNPS1, RPS14, RPL5): reduction in the amount of MYC; also recorded: reduce the amount of MYC bound to chromatin
amount of MYC at sites where MYC binding is independent of WDR5 (MYC bound to chromatin; ZFPM1 and ZNF771): remained nearly unaffected; also recorded: did not affect binding of MYC

Second part, the compound after the results:

inhibition of histone methyltransferase activity of MLL-1 [1]: inhibited
Compound: O=S(=O)(Nc1cnn(C2CCCC2)c1)c1cc(Br)cc(Cl)c1O [Compound 3d, 5-Bromo-3-chloro-N-(1-cyclopentyl-1H-pyrazol-4-yl)-2-hydroxybenzenesulfonamide]

fold improvement in the binding affinity compared to 2a (WDR5; FPA Kd relative to 2a): 2.5 fold
WDR5-MYC complex formation in whole cells relative to DMSO (WDR5-MYC complex): decreased complex formation
Compound: O=S(=O)(Nc1cn(C2CCCC2)cn1)c1cc(Br)cc(Cl)c1O [Compound 2i, 5-Bromo-3-chloro-N-(1-cyclopentyl-1H-imidazol-4-yl)-2-hydroxybenzenesulfonamide]
